Source: PMC9851200, “Multiparameter phenotypic screening for endogenous TFEB and TFE3 translocation identifies novel chemical series modulating lysosome function” (Autophagy, 2022)
Where two headings read alike, the source gives them in different places.

Key:
[1] = system: endogenous TFEB; test: TFEB nuclear translocation, immunocytochemistry high-content imaging; assay type: cell-based
[2] = system: endogenous TFE3; test: TFE3 nuclear translocation, immunocytochemistry high-content imaging; assay type: cell-based
[3] = system: SH-SY5Y cells; also: reference of the scale not given here
[4] = system: SH-SY5Y cells; test: AK (adenylate kinase) release ToxiLight cytotoxicity assay; also: reference of the scale not given here
[5] = system: SH-SY5Y cells; test: Nuclear count from microscopy images (cellular growth and toxicity); also: reference of the scale not given here
[6] = PKIS2 primary screening, DQ Red BSA intensity
[7] = PKIS2 primary screening, DQ Red BSA spot count

| SMILES | TFEB % ([1]; PKIS2 primary screening) [%] | TFE3 % ([2]; PKIS2 primary screening) [%] | DQ Intensity [3, 6] | DQ Spot [3, 7] | AK ([4]; PKIS2 primary screening) | Nuclear Count ([5]; PKIS2 primary screening) | DQ Intensity ([3]; PKIS2 primary screening) | DQ Spot ([3]; PKIS2 primary screening) | TFEB % ([1]; PKIS2 primary screen) [%] | TFE3 % ([2]; PKIS2 primary screen) [%] | DQ Intensity ([3]; PKIS2 primary screen, DQ Red BSA intensity) | DQ Spot ([3]; PKIS2 primary screen, DQ Red BSA spot count) | AK ([4]; PKIS2 primary screen) | Nuclear Count ([5]; PKIS2 primary screen) |
| --- | --- | --- | --- | --- | --- | --- | --- | --- | --- | --- | --- | --- | --- | --- |
| Nc1n[nH]c2cc(-c3ccccn3)ccc12 [GSK2189892] | 8.33 | 11.18 | 114.80 | 107.54 | 114.93 | 100.38 |  |  |  |  |  |  |  |  |
| CCn1c(-c2ccoc2)nc2cnccc21 [UNC10225474A] | 2.97 | 9.12 |  |  | 125.64 | 101.97 | 148.88 | 113.44 |  |  |  |  |  |  |
| CCn1c(-c2nonc2N)nc2ccccc21 [UNC10112830A] | 9.19 | 10.17 |  |  | 85.29 | 114.37 | 143.39 | 111.62 |  |  |  |  |  |  |
| COc1ccc(Nc2nccc(N3CCC(NC(=O)Nc4cccc(C(C)=O)c4)C3)n2)cc1 (stereo not drawn) [GSK1379731] | 9.04 | 14.27 | 109.14 | 92.48 | 78.89 | 122.85 |  |  |  |  |  |  |  |  |
| Cl.Cl.Cl.Fc1ccc(-c2ncn(C3CCNCC3)c2-c2ccnc(Nc3ccccc3)n2)cc1 [UNC10225420B] | 2.15 | 11.83 |  |  | 83.09 | 69.94 | 154.30 | 110.72 |  |  |  |  |  |  |
| N#Cc1cccc(C(=O)NC2CCN(c3ccnc(Nc4ccc(F)cc4)n3)C2)c1 (stereo not drawn) [GSK1379708] | 6.02 | 11.35 | 97.27 | 112.33 | 99.36 | 107.86 |  |  |  |  |  |  |  |  |
| NS(=O)(=O)c1cccc(N/C=C2\C(=O)Nc3ccc(S(=O)(=O)Cc4c(Cl)cccc4Cl)cc32)c1 [UNC10225298A] |  |  |  |  |  |  |  |  | 5.78 | 5.33 | 100.02 | 99.79 | 117.06 | 112.41 |
| C[C@@H](Oc1cc(-n2cnc3ccc(NC(=O)NC(C)(C)C)cc32)sc1C(N)=O)c1ccccc1Cl [UNC10225287A] | 3.50 | 9.35 |  |  | 76.21 | 136.32 | 115.96 | 109.60 |  |  |  |  |  |  |
| NC(=O)c1sc(-n2cnc3ccccc32)cc1OCc1ccccc1F [UNC10225260A] | 10.02 | 15.10 |  |  | 77.77 | 92.38 | 138.58 | 126.89 |  |  |  |  |  |  |
| Cc1ccccc1Cn1ccn2c(=O)cc(N3CCOCC3)nc12 [UNC10225355A] | 2.12 | 15.51 |  |  | 91.19 | 89.36 | 95.37 | 115.18 |  |  |  |  |  |  |
| CC(C)(C)n1cnc2c(N)ncnc21 [UNC10225362A] | 5.16 | 7.46 |  |  | 102.90 | 45.84 | 122.93 | 124.24 |  |  |  |  |  |  |
| Nc1ncnc2c1ncn2-c1cccc2ccccc12 [UNC10225410A] | 7.46 | 8.71 |  |  | 106.56 | 88.30 | 80.92 | 97.35 |  |  |  |  |  |  |
| CSc1ccc(-c2nc3n(c2-c2ccncc2)CCC3)cc1 [UNC10225486A] | 5.52 | 13.99 | 119.41 | 102.53 | 80.57 | 91.88 |  |  |  |  |  |  |  |  |
